Measurements as given in patent US6906205B2, “Spiro and dispiro 1,2,4-trioxolane antimalarials” (Medicines for Malaria Venture MMV, priority 2002, dated 2005).
≈ marks a conversion by molar mass, not a printed value.

Columns and labels:
[1] = system: P. falciparum NF54 strain (sensitive to standard antimalarials); experiment: semiautomated microdilution assay, [3H]-hypoxanthine incorporation, NF54 strain; type: cell-based, Plasmodium falciparum; settings: NF54 strain, 72 h incubation
Outline: (§1)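 IC50 values come from logit regression of semiautomated microdilution data obtained on intraerythrocytic parasites drawn from asynchronous cultures.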

[2] = system: Schistosoma mansoni adult schistosomes (49-day-old); experiment: effect on adult schistosomes (49-day-old) in mice; type: in vivo; settings: single 400 mg/kg per os
Procedure: Mice were infected with 100 Schistosoma mansoni cercariae […]. Each group was treated per os with OZ compounds at single doses of 200, 400, and 600 mg/kg. […] All groups were killed 4 weeks after treatment and the liver and intestine were removed and separated. The liver and intestine were compressed and alive male and female worms could be seen and counted.

[3] = system: P. falciparum K1 strain (Thailand resistant to chloroquine); experiment: semiautomated microdilution assay, [3H]-hypoxanthine incorporation, K1 strain; type: cell-based, Plasmodium falciparum; settings: K1 strain, 72 h incubation
Outline: as §1

[4] = system: ANKA strain of P. berghei; experiment: single dose STI in vivo screen in infected mice; set-up: species or system Plasmodium berghei; settings: for Activity (%) po / Activity (%) sc / Activity (%) SSVpo / Activity (%) 3 mg/kg SSV po / Activity (%) 10 mg/kg SSV po: percent reduction in parasitemia day 3 post-infection; for Activity (%) po / Survival (days) po: single 10 mg/kg po in 3% ethanol and 7% Tween 80; for Activity (%) po / Activity (%) sc / Activity (%) SSVpo: mice; for Activity (%) sc / Survival (days) sc: single 10 mg/kg sc in 3% ethanol and 7% Tween 80; for Activity (%) SSVpo: single po dose in standard suspending vehicle (SSV); for Survival (days) po / Survival (days) sc / Survival (days) SSVpo: untreated control 5.6 ± 0.3; for Survival (days) SSVpo: single po dose in SSV; for Activity (%) 3 mg/kg SSV po / Survival (days) 3 mg/kg SSV po: single 3 mg/kg po in SSV; for Activity (%) 10 mg/kg SSV po / Survival (days) 10 mg/kg SSV po: single 10 mg/kg po in SSV
Outline: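 Groups of 3-5 Moro SPF or NMRI mice infected with the ANKA strain of P. berghei received a single dose of trioxolane on day one post-infection. The compound was given in 3% ethanol and 7% Tween 80 or in SSV (0.5% w/v CMC, 0.5% v/v benzyl alcohol, 0.4% v/v Tween 80, 0.9% w/v sodium chloride in water). Antimalarial activity was scored as percent reduction in parasitemia on day three and as survival time versus untreated controls. Survival to day 30 counted as cure.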

Row | Structure (SMILES) | IC50 (ng/ml) NF54 [1] | % reduction of adult worms growth at day 49 after per os application of 400 mg/kg, TWR (%) [2] [%] | adult worms at day 49, per os 400 mg/kg, DEAD WORM (%) [2] [%] | IC50 (ng/ml) K1 [3] | Activity (%) po [4] | Activity (%) sc [4] | Activity (%) SSVpo [4] [%] | Survival (days) po [4] | Survival (days) sc [4] | Survival (days) SSVpo [4] [days] | Activity (%) po ([4]; 10 mg/kg) [%] | Activity (%) sc ([4]; 10 mg/kg) [%] | Survival (days) po ([4]; 10 mg/kg) [days] | Survival (days) sc ([4]; 10 mg/kg) [days] | Activity (%) 3 mg/kg SSV po [4] [%] | Activity (%) 10 mg/kg SSV po [4] [%] | Survival (days) 10 mg/kg SSV po [4] [days] | Survival (days) 3 mg/kg SSV po [4] [days]
1 | Clc1ccc(C2(c3ccc(Cl)cc3)OOC3(O2)C2CC4CC(C2)CC3C4)cc1 (stereo not shown) [OZ43] | 7.5 ng/mL (≈ 0.018 µM) | 1 | 0 | 11 ng/mL (≈ 0.0264 µM) | 99.97% | 97% | 18 | 8.9 days | 7.3 days | 5.4 | – | – | – | – | – | – | – | –
2 | CC(=O)N1CCC2(CC1)OOC1(O2)C2CC3CC(C2)CC1C3 (stereo not shown) [OZ49] | 0.93 ng/mL (≈ 0.00303 µM) | 17 | 10 | 0.82 ng/mL (≈ 0.00267 µM) | 81% | 85% | – | 6.7 days | 7.3 days | – | – | – | – | – | – | – | – | –
3 | O=S1(=O)CCC2(CC1)OOC1(O2)C2CC3CC(C2)CC1C3 (stereo not shown) [OZ50] | 1.2 ng/mL (≈ 0.00382 µM) | 12 | 4 | 1.1 ng/mL (≈ 0.0035 µM) | 77% | 97% | 57 | 7.0 days | 7.3 days | 5.7 | – | – | – | – | – | – | – | –
4 | c1ccc(C2CCC3(CC2)OOC2(O3)C3CCCC2CCC3)cc1 (stereo not shown) [OZ67] | >100/>100 ng/ml | 38 | 0 | >100/>100 ng/ml | 0/NA/0% | 0/NA/0% | – | 5.0/NA/5.0 days | 5.0/NA/5.0 days | – | – | – | – | – | – | – | – | –
5 | CC1(C)COC2(CCC3(CC2)OOC2(O3)C3CCCC2CCC3)OC1 (stereo not shown) [OZ68] | 49 ng/mL (≈ 0.139 µM) | 17 | 0 | 41 ng/mL (≈ 0.116 µM) | 1% | 6% | – | 5.0 days | 5.3 days | – | – | – | – | – | – | – | – | –
6 | O=C(O)C1CCC2(CC1)OOC1(O2)C2CC3CC(C2)CC1C3 (stereo not shown) [OZ72] | 13 ng/mL (≈ 0.0422 µM) | – | 10 | 15 ng/mL (≈ 0.0486 µM) | – | – | – | – | – | – | 97 | 95 | 7.7 | 6.7 | – | – | – | –
7 | OC1(c2ccc(F)cc2)CCC2(CC1)OOC1(O2)C2CC3CC(C2)CC1C3 (stereo not shown) [OZ76] | 3.0 ng/mL (≈ 0.00801 µM) | 32 | 0 | 1.7 ng/mL (≈ 0.00454 µM) | 49% | 94% | – | 6.3 days | 8.0 days | – | – | – | – | – | – | – | – | –
8 | CCS(=O)(=O)N1CCC2(CC1)OOC1(O2)C2CC3CC(C2)CC1C3 (stereo not shown) [OZ79] | 0.81 ng/mL (≈ 0.00227 µM) | 4 | 0 | 0.38 ng/mL (≈ 0.00106 µM) | 85% | 99.94% | – | 7.0 days | 9.3 days | – | – | – | – | – | – | – | – | –
9 | c1ccc(C2(c3ccccn3)OOC3(O2)C2CC4CC(C2)CC3C4)nc1 (stereo not shown) [OZ81] | >100/>100 ng/ml | 28 | 0 | >100/>100 ng/ml | 0/NA/0% | 0/NA/0% | – | 5.3 days | 5.0 days | – | – | – | – | – | – | – | – | –
10 | O=[N+]([O-])c1cccc(C2(c3cccc([N+](=O)[O-])c3)OOC3(O2)C2CC4CC(C2)CC3C4)c1 (stereo not shown) [OZ105] | – | 8 | 0 | 5.4 ng/mL (≈ 0.0123 µM) | 16% | 28% | 0 | 5.7 days | 6.3 days | 5.7 | – | – | – | – | – | – | – | –
11 | NOC[C@H]1CC[C@]2(CC1)OO[C@]1(O2)C2CC3CC(C2)CC1C3 [OZ334] | 20 ng/mL (≈ 0.0646 µM) | – | – | 28 ng/mL (≈ 0.0905 µM) | – | – | – | – | – | – | – | – | – | – | 13 | 47 | 6.8 | –
12 | NNC(=O)C[C@H]1CC[C@]2(CC1)OO[C@]1(O2)C2CC3CC(C2)CC1C3 [OZ340] | 2.9 ng/mL (≈ 0.00862 µM) | – | – | 4.9 ng/mL (≈ 0.0146 µM) | – | – | – | – | – | – | – | – | – | – | 36 | 93 | 9.2 | –
13 | NC(=O)[C@@H]1CCCN1C(=O)C[C@H]1CC[C@]2(CC1)OO[C@]1(O2)C2CC3CC(C2)CC1C3 [OZ346] | 4.7 ng/mL (≈ 0.0112 µM) | – | – | 3.8 ng/mL (≈ 0.00908 µM) | – | – | – | – | – | – | – | – | – | – | 51 | 85 | 8.8 | 7.6
14 | C1C2CC3CC1CC(C2)[C@]31OO[C@@]2(CC[C@H](Cc3nnn[nH]3)CC2)O1 [OZ363] | 55 ng/mL (≈ 0.159 µM) | – | – | 46 ng/mL (≈ 0.133 µM) | – | – | – | – | – | – | – | – | – | – | 10 | 40 | 6.8 | 6.0
15 | O=C([C@H]1CC[C@]2(CC1)OO[C@]1(O2)C2CC3CC(C2)CC1C3)N1CCNCC1 [OZ368] | 0.43 ng/mL (≈ 0.00114 µM) | – | – | 0.63 ng/mL (≈ 0.00167 µM) | – | – | – | – | – | – | – | – | – | – | 99 | 99.94 | 9.0 | 9.2
